Eight compounds from PubChem BioAssay (NCI) can be followed below.

Some test systems named below: CAKI-1 renal; EKVX NSCLC; HCT-15 colon; HOP-62 NSCLC; IGROV1 ovarian; MDA-N; MOLT-4 leukemia; NCI-H522 lung; OVCAR-4 ovarian; RXF 393 renal; SF-539 CNS; SK-OV-3 ovarian; SNB-75 CNS; TK-10 renal; UACC-62 melanoma; UO-31 renal; M14 melanoma; MALME-3M melanoma; HL-60(TB) leukemia.
What all share (assay): inhibition of tumour cell growth, NCI panel, 48 h

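Five compound concentrations were applied to cells in 96-well plates for 48 hours; endpoints were derived by simple linear interpolation of the resulting dose-response curve. TGI: total growth inhibition.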

In the case of `C=C1C(=O)O[C@H]2[C@H]3O[C@@H](C[C@@H]12)[C@](C)(O)CCCC(C)=CCC[C@H]3C`, the TGI in the experiment with CAKI-1 renal stood at 28.5 µM; with EKVX NSCLC it was 22.4 µM; in the experiment with HCT-15 colon, 84.9 µM; in the experiment on HOP-62 NSCLC it was 31.3 µM; in the experiment on IGROV1 ovarian it was 5.05 µM; in the experiment on MDA-N it was 75.8 µM. The TGI was 8.09 µM in the experiment with MOLT-4 leukemia; 17.3 µM in the experiment on NCI-H522 lung; 39 µM in the experiment on OVCAR-4 ovarian; 20.3 µM in the experiment on RXF 393 renal; 26.9 µM in the experiment on SF-539 CNS; 35.3 µM in the experiment on SK-OV-3 ovarian. Also, the TGI with SNB-75 CNS was found to be 22.3 µM; with TK-10 renal it was 14.6 µM; with UACC-62 melanoma it was 22.8 µM; in the experiment with UO-31 renal, 23.5 µM.

Take `O=C1C(c2c(O)[nH]c3ccc(S(=O)(=O)N(CCO)CCO)cc23)=Nc2ccccc21`: the TGI in the experiment with CAKI-1 renal, in the experiment with EKVX NSCLC, with HCT-15 colon, in the experiment on HOP-62 NSCLC, in the experiment on IGROV1 ovarian and with M14 melanoma was above 100 µM in each case. Moreover, the TGI with MALME-3M melanoma was above 100 µM; with MDA-N it was above 100 µM; in the experiment on MOLT-4 leukemia, above 100 µM; in the experiment on NCI-H522 lung, above 100 µM; in the experiment on OVCAR-4 ovarian it was above 100 µM; with RXF 393 renal it was 6.53 µM. The TGI in the experiment with SK-OV-3 ovarian was above 100 µM; with SNB-75 CNS, 8.49 µM; in the experiment with TK-10 renal, above 100 µM; in the experiment with UACC-62 melanoma it was above 100 µM; with UO-31 renal, above 100 µM.

With `Clc1ccc(-c2cc(-c3nc4ccccc4[nH]3)no2)cc1`, the TGI in the experiment with CAKI-1 renal stood at 34.7 µM; with EKVX NSCLC, 34 µM; with HCT-15 colon, 45 µM; with HL-60(TB) leukemia, 37.2 µM; in the experiment with HOP-62 NSCLC, 38.2 µM; in the experiment with IGROV1 ovarian it was 62.1 µM. Besides, the TGI came to 34.6 µM with M14 melanoma; 37.5 µM in the experiment on MALME-3M melanoma; 33.8 µM in the experiment on MDA-N; 47.9 µM in the experiment on MOLT-4 leukemia; 42.8 µM in the experiment on NCI-H522 lung; 51.4 µM in the experiment with OVCAR-4 ovarian. Further, the TGI in the experiment on SF-539 CNS is 74.3 µM; with SK-OV-3 ovarian, 35.8 µM; with SNB-75 CNS, 44.5 µM; in the experiment with TK-10 renal, 40 µM; in the experiment with UACC-62 melanoma, 28.3 µM; in the experiment with UO-31 renal, 34.7 µM.

Turning to `COc1ccc(N=C2C(=Nc3ccc(OC)cc3)N(c3ccccc3[N+](=O)[O-])C(=S)N2c2ccc(OC)cc2)cc1`, the TGI in the experiment with CAKI-1 renal, with EKVX NSCLC, with HCT-15 colon, in the experiment on HOP-62 NSCLC, with IGROV1 ovarian and in the experiment on M14 melanoma was above 100 µM throughout. The TGI in the experiment on MDA-N, in the experiment on MOLT-4 leukemia, in the experiment with NCI-H522 lung, in the experiment on RXF 393 renal, in the experiment with SF-539 CNS and in the experiment on SK-OV-3 ovarian was above 100 µM each time. For the same compound, the TGI with SNB-75 CNS, in the experiment on TK-10 renal, in the experiment with UACC-62 melanoma and in the experiment with UO-31 renal was above 100 µM in each case.

For `O=C1CCC2(c3ccc(F)cc3)Nc3ncncc3N12` (stereo not drawn), the TGI with EKVX NSCLC, in the experiment on HCT-15 colon, in the experiment on IGROV1 ovarian, with M14 melanoma, in the experiment with MALME-3M melanoma and in the experiment on MDA-N was above 10 µM throughout. In addition, the TGI in the experiment with MOLT-4 leukemia, in the experiment on NCI-H522 lung, in the experiment on OVCAR-4 ovarian, in the experiment on SF-539 CNS, with SNB-75 CNS and in the experiment with TK-10 renal was above 10 µM each time. In addition, the TGI in the experiment on UACC-62 melanoma and with UO-31 renal was above 10 µM throughout.

As to `COC(=O)c1cc(/C=C2\Cc3cc4c(cc3C2=O)CCC4)cc2c1CCC2`, the TGI in the experiment with CAKI-1 renal, in the experiment with EKVX NSCLC, with HCT-15 colon, in the experiment with HL-60(TB) leukemia, in the experiment on HOP-62 NSCLC and in the experiment with IGROV1 ovarian was above 100 µM in each case. The TGI with M14 melanoma, in the experiment on MALME-3M melanoma, with MDA-N, in the experiment with MOLT-4 leukemia, in the experiment on NCI-H522 lung and in the experiment on OVCAR-4 ovarian was above 100 µM throughout. Further, the TGI with SF-539 CNS, in the experiment on SK-OV-3 ovarian, with SNB-75 CNS, in the experiment on TK-10 renal, in the experiment with UACC-62 melanoma and in the experiment on UO-31 renal was above 100 µM throughout.

In the case of `CC1(C)CC[C@]2(C(=O)O)CC[C@]3(C)C(=CC[C@@H]4[C@@]5(C)CC[C@@H]6OC(C)(C)OC[C@@]6(C)[C@@H]5CC[C@]43C)[C@H]2C1`, the TGI with EKVX NSCLC turned out to be 19.4 µM; in the experiment on HCT-15 colon it was 13.9 µM; with HL-60(TB) leukemia, 32.9 µM; in the experiment on HOP-62 NSCLC, 22.9 µM; with IGROV1 ovarian, 30.2 µM; in the experiment with M14 melanoma, 33.7 µM. Moreover, the TGI in the experiment on MALME-3M melanoma was 25.6 µM; in the experiment with MDA-N, 27 µM; with MOLT-4 leukemia it was 34.3 µM; with NCI-H522 lung it was 29 µM; with OVCAR-4 ovarian, above 100 µM; with SF-539 CNS, 33.5 µM. In addition, the TGI in the experiment with SK-OV-3 ovarian turned out to be 91.8 µM; in the experiment on SNB-75 CNS, 27.7 µM; in the experiment on TK-10 renal, 32.7 µM; with UACC-62 melanoma, 25.4 µM; with UO-31 renal, 25.6 µM.

In the case of `Cc1ccc(S(=O)(=O)N/N=C2/CC[C@H](C(C)(C)C)C[C@@H]2C)cc1`, the TGI was 26.3 µM in the experiment with CAKI-1 renal; 32.2 µM in the experiment with EKVX NSCLC; 32.7 µM in the experiment with HCT-15 colon; above 100 µM with HL-60(TB) leukemia; 26.9 µM with HOP-62 NSCLC; 30 µM with IGROV1 ovarian. Besides, the TGI in the experiment on M14 melanoma was 26.6 µM; with MALME-3M melanoma it was 29.8 µM; with MDA-N, 34.3 µM; in the experiment on MOLT-4 leukemia it was 31.1 µM; in the experiment on OVCAR-4 ovarian, 20 µM; with SF-539 CNS, 32.5 µM. Further, the TGI in the experiment with SK-OV-3 ovarian came out at 36.6 µM; in the experiment with SNB-75 CNS, 39 µM; in the experiment on TK-10 renal, 30.4 µM; in the experiment on UACC-62 melanoma, 31.4 µM; with UO-31 renal, 26.6 µM.
